Source: paper PMC7859440, “Transporter Gene Regulation in Sandwich Cultured Human Hepatocytes Through the Activation of Constitutive Androstane Receptor (CAR) or Aryl Hydrocarbon Receptor (AhR)” (Frontiers in Pharmacology, 2021)
“And” between values parts separate entries of the source, which are not always exact repeats. Equal entries are not always repeated.

What was measured:
CYP1A2 = conditions: SCHH, 72 h; TCDD 50 nM, OP 50 µM, CITCO 5 µM, PB 1,000 µM (highest conc.); mean ± SD, three donors
Protocol: (§1) Cryopreserved human hepatocytes were quickly thawed at 37°C and then transferred into hepatocyte thawing medium. Cells were pelleted at 100 × g for 10 min and then resuspended in hepatocyte complete plating medium (CP medium). The cells were then seeded at 65,000 cells per well in 96-well collagen I coated plates. After cell attachment (4–6 h post-seeding), CP medium was exchanged for ice-cold complete incubation medium (HI medium) containing BD Matrigel™ at the concentration of 0.25 mg/ml. The cells were then incubated overnight at 37°C in a humidified 5% CO2 incubator. […] Cell death or loss of adhesion of hepatocytes during or after treatment were examined by microscopy.
A RNeasy 96 Kit (Qiagen) was used to extract the total cellular RNA from sandwich cultured hepatocytes in 96-well plates following the manufacturer's instructions. A total volume of 200 μL RNA was obtained via the column elution provided in the RNeasy kit. […] Gene expression for each condition is expressed as a fold-change of mean ± standard deviation (SD) from three independent donors (each performed in triplicate). […]

CYP2B6 = assay: in vitro
Protocol: as §1
(§2) A RNeasy 96 Kit (Qiagen) was used to extract the total cellular RNA from sandwich cultured hepatocytes in 96-well plates following the manufacturer's instructions. A total volume of 200 μL RNA was obtained via the column elution provided in the RNeasy kit. Five μL RNA extraction was mixed with TaqMan® Fast Virus 1-Step Master Mix (Life Technologies) in a final reaction volume of 20 μL and qRT-PCR was achieved using a QuantStudio 6 Flex Real-Time PCR System (Life Technologies), following the manufacturer's instructions. β-actin mRNA expression in the SCHH was used as a house-keeping gene for the normalization of target gene expressions. The mRNA levels in SCHH treated with AhR or CAR activators were expressed by a fold change, compared to the gene expressions without the treatment. […] Gene expression for each condition is expressed as a fold-change of mean ± standard deviation (SD) from three independent donors (each performed in triplicate). All primer and probe sets were purchased from Life Technologies (Table 2). When concentration-dependent induction observed, the in vitro induction mRNA data were fitted using the sigmoid 3-parameter equation in GraphPad Prism (La Jolla, CA) to estimate the in vitro concentration of inducer that produced half the maximum induction values (EC50).

CYP3A4 = assay: in vitro; conditions: for EC50 at 72 h: human
Protocol: as §1, §2

UGT1A1 = assay: gene induction in sandwich-cultured human hepatocytes (qRT-PCR); conditions: for EC50 at 72 h: human, sandwich-cultured human hepatocytes (SCHH)
Protocol: as §1
(§3) A RNeasy 96 Kit (Qiagen) was used to extract the total cellular RNA from sandwich cultured hepatocytes in 96-well plates following the manufacturer's instructions. A total volume of 200 μL RNA was obtained via the column elution provided in the RNeasy kit. Five μL RNA extraction was mixed with TaqMan® Fast Virus 1-Step Master Mix (Life Technologies) in a final reaction volume of 20 μL and qRT-PCR was achieved using a QuantStudio 6 Flex Real-Time PCR System (Life Technologies), following the manufacturer's instructions. β-actin mRNA expression in the SCHH was used as a house-keeping gene for the normalization of target gene expressions. The mRNA levels in SCHH treated with AhR or CAR activators were expressed by a fold change, compared to the gene expressions without the treatment. The 2^−ΔΔCt method ([Livak and Schmittgen, 2001]) was used to analyze the relative changes in gene expression, where the Ct is the cycle number at which the fluorescence in the reaction crosses the preset arbitrary threshold; the ΔCt represents the difference between the Ct target and reference and the ΔΔCt is the difference between the ΔCt of the test and the ΔCt of the preassigned control. Gene expression for each condition is expressed as a fold-change of mean ± standard deviation (SD) from three independent donors (each performed in triplicate). All primer and probe sets were purchased from Life Technologies (Table 2). When concentration-dependent induction observed, the in vitro induction mRNA data were fitted using the sigmoid 3-parameter equation in GraphPad Prism (La Jolla, CA) to estimate the in vitro concentration of inducer that produced half the maximum induction values (EC50).

ABCB1 (MDR1) = assay: as above; assay type: cell-based; conditions: SCHH, 72 h; TCDD 50 nM, OP 50 µM, CITCO 5 µM, PB 1,000 µM (highest conc.); mean ± SD, three donors
Protocol: as §1, §3

ABCB11 (BSEP) = assay: as above; assay type: cell-based; conditions: SCHH, 72 h; TCDD 50 nM, OP 50 µM, CITCO 5 µM, PB 1,000 µM (highest conc.); mean ± SD, three donors
Protocol: as §1, §3

ABCC2 (MRP2) = assay: as above; assay type: cell-based; conditions: SCHH, 72 h; TCDD 50 nM, OP 50 µM, CITCO 5 µM, PB 1,000 µM (highest conc.); mean ± SD, three donors
Protocol: as §1, §3

ABCC3 (MRP3) = assay: as above; assay type: cell-based; conditions: SCHH, 72 h; TCDD 50 nM, OP 50 µM, CITCO 5 µM, PB 1,000 µM (highest conc.); mean ± SD, three donors
Protocol: as §1, §3

ABCC4 (MRP4) = assay: as above; assay type: cell-based; conditions: SCHH, 72 h; TCDD 50 nM, OP 50 µM, CITCO 5 µM, PB 1,000 µM (highest conc.); mean ± SD, three donors
Protocol: as §1, §3

ABCC5 (MRP5) = assay: as above; assay type: cell-based; conditions: SCHH, 72 h; TCDD 50 nM, OP 50 µM, CITCO 5 µM, PB 1,000 µM (highest conc.); mean ± SD, three donors
Protocol: as §1, §3

ABCC6 (MRP6) = assay: as above; assay type: cell-based; conditions: SCHH, 72 h; TCDD 50 nM, OP 50 µM, CITCO 5 µM, PB 1,000 µM (highest conc.); mean ± SD, three donors
Protocol: as §1, §3

ABCG2 (BCRP) = assay: as above; assay type: cell-based; conditions: SCHH, 72 h; TCDD 50 nM, OP 50 µM, CITCO 5 µM, PB 1,000 µM (highest conc.); mean ± SD, three donors
Protocol: as §1, §3

SLC22A1 (OCT1) = assay: as above; assay type: cell-based; conditions: SCHH, 72 h; TCDD 50 nM, OP 50 µM, CITCO 5 µM, PB 1,000 µM (highest conc.); mean ± SD, three donors
Protocol: as §1, §3

SLC47A1 (MATE1) = assay: as above; assay type: cell-based; conditions: SCHH, 72 h; TCDD 50 nM, OP 50 µM, CITCO 5 µM, PB 1,000 µM (highest conc.); mean ± SD, three donors
Protocol: as §1, §3

SLCO1B1 (OATP1B1) = assay: as above; assay type: cell-based; conditions: SCHH, 72 h; TCDD 50 nM, OP 50 µM, CITCO 5 µM, PB 1,000 µM (highest conc.); mean ± SD, three donors
Protocol: as §1, §3

SLCO1B3 (OATP1B3) = assay: as above; assay type: cell-based; conditions: SCHH, 72 h; TCDD 50 nM, OP 50 µM, CITCO 5 µM, PB 1,000 µM (highest conc.); mean ± SD, three donors
Protocol: as §1, §3

SLCO2B1 (OATP2B1) = assay: as above; assay type: cell-based; conditions: SCHH, 72 h; TCDD 50 nM, OP 50 µM, CITCO 5 µM, PB 1,000 µM (highest conc.); mean ± SD, three donors
Protocol: as §1, §3

SLCO4C1 (OATP4C1) = assay: as above; assay type: cell-based; conditions: SCHH, 72 h; TCDD 50 nM, OP 50 µM, CITCO 5 µM, PB 1,000 µM (highest conc.); mean ± SD, three donors
Protocol: as §1, §3

SLC10A1 (NTCP) = assay: as above; assay type: cell-based; conditions: SCHH; for SLC10A1 gene suppression (reduction): 3 days, highest concentration treated
SLC15A1 (PEPT1) = assay: as above; assay type: cell-based; conditions: SCHH, 72 h; TCDD 50 nM, OP 50 µM, CITCO 5 µM, PB 1,000 µM (highest conc.); mean ± SD, three donors
SLC16A1 (MCT1) = assay: as above; assay type: cell-based; conditions: SCHH, 72 h; TCDD 50 nM, OP 50 µM, CITCO 5 µM, PB 1,000 µM (highest conc.); mean ± SD, three donors
SLC22A7 (OAT2) = assay: as above; assay type: cell-based; conditions: SCHH, 72 h; TCDD 50 nM, OP 50 µM, CITCO 5 µM, PB 1,000 µM (highest conc.); mean ± SD, three donors
SLC22A9 (OAT7) = assay: as above; assay type: cell-based; conditions: SCHH, 72 h; TCDD 50 nM, OP 50 µM, CITCO 5 µM, PB 1,000 µM (highest conc.); mean ± SD, three donors
SLC22A5 (OCTN2) = assay: as above; assay type: cell-based; conditions: SCHH, 72 h; TCDD 50 nM, OP 50 µM, CITCO 5 µM, PB 1,000 µM (highest conc.); mean ± SD, three donors
SLC29A1 (ENT1) = assay: as above; assay type: cell-based; conditions: SCHH, 72 h; TCDD 50 nM, OP 50 µM, CITCO 5 µM, PB 1,000 µM (highest conc.); mean ± SD, three donors
SLC29A2 (ENT2) = assay: as above; assay type: cell-based; conditions: SCHH, 72 h; TCDD 50 nM, OP 50 µM, CITCO 5 µM, PB 1,000 µM (highest conc.); mean ± SD, three donors
SLC51A (OSTα) = assay: as above; assay type: cell-based; conditions: SCHH, 72 h; TCDD 50 nM, OP 50 µM, CITCO 5 µM, PB 1,000 µM (highest conc.); mean ± SD, three donors
SLC51B (OSTβ) = assay: as above; assay type: cell-based; conditions: SCHH, 72 h; TCDD 50 nM, OP 50 µM, CITCO 5 µM, PB 1,000 µM (highest conc.); mean ± SD, three donors
[1] = tested on: 24 hepatic drug transporter genes (mRNA); assay: gene induction in sandwich-cultured human hepatocytes (qRT-PCR), transporter panel; assay type: cell-based; conditions: sandwich-cultured human hepatocytes (SCHH), generally, 24 transporter genes, read-out: average fold change (fold induction) of transporter genes
CYP1A1 = assay: in vitro; conditions: human
Protocol: as §1
as §3, with “When concentration-dependent induction observed, the in vitro induction mRNA data were fitted using the sigmoid 3-parameter equation in GraphPad Prism (La Jolla, CA) to estimate the in vitro concentration of inducer that produced half the maximum induction values (EC50).” left out

[2] = SCHH, 72 h, TCDD 50 nM, OP 50 µM, CITCO 5 µM, PB 1,000 µM (highest conc.), mean ± SD, three donors

## COc1ccc2[nH]c([S+]([O-])Cc3ncc(C)c(OC)c3C)nc2c1 (stereo not shown) [OP, Omeprazole]
CYP1A1
  EC50 at 72 h: 3.34 ± 1.39 µM
CYP3A4
  EC50 at 72 h: […]
UGT1A1
  EC50 at 72 h: 28.7 ± 7.32 µM
SLC10A1 (NTCP)
  SLC10A1 gene suppression (reduction): about 2 fold
